# Measurements from patent publication US20250313535A1, “ALPHA 4 BETA 7 INTEGRIN MODULATORS AND USES THEREOF” (DICE MOLECULES SV, INC., priority 2022, published 2025).
# pIC50: −log10 of the molar value. Where two headings read alike, the source gives them in different places.
# How the values were obtained:
# [1] = target: α4β1 integrin (Homo sapiens (Human), UniProt P05556+P13612); test: Integrin Adhesion Assay: Protocol 5 (VCAM-coated plate, RPMI-8866 cells with stable LOF mutation of the ITGB7 gene); format: cell-based; conditions: RPMI-8866 cells with stable LOF mutation of the ITGB7 gene; read-out: Mean IC50 α4β1 KO^b
# Experimental: (§1) Integrin Adhesion Assay Using Genetically Modified Cells Generating Stable Cell Lines with ITGB1 or ITGB7 Knockout (Protocol 4 and Protocol 5)
# (§2) To obtain subclones of the RPMI-8866 cell line (Sigma-Aldrich, St. Louis, MO) that were individually deficient in either integrin β1 or integrin β 7, CRISPR/Cas9 technology was employed (PMID: 30108345). Specifically, a Neon™ Transfection System System 10 μL Kit and the Neon™ Transfection device (both from ThermoFisher Scientific) were used.
# (§3) The protocol was performed following the manufacturer instructions, described in https://www.thermofisher.com/document-connect/document-connect.html?url=https % 3A%2F%2F assets.thermofisher.com%2FTFS-Assets%2FLSG%2Fmanuals%2FMAN0017066_TrueCut Cas9_Protein_v2_UG.pdf, which is incorporated by reference herein in its entirety.
# (§4) RPMI-8866 cells were transferred to a flask the day before transfection, at a confluence of 5×10^5 cells/mL. The cells were washed with PBS and resuspended in buffer R (Neon™ Transfection System, Invitrogen) to 2×10^5 cells/10 uL for each reaction. The TrueCut™ HiFi Cas9 Protein (1250 ng per reaction) was mixed with TrueGuide™ sgRNA (7.5 pmoles each/pool of 3 sequences, table 1) (ThermoFisher Scientific). This mix was combined with the RPMI-8866 cells and electroporated on the Neon system at 1700V/20 ms/1 pulse. Transfected cells were allowed to recover in 500 μL pre-warmed cRMPI media (RPMI-1640 media with 10% FBS, 100 U/ml Penicillin-Streptomycin) at 37° C., 5% CO2 for 24 hours. At that time, an extra 500 μL of pre-warmed cRMPI media was added, and cells were incubated for another 24 hours.
# (§5) For flow cytometry analysis, 100 μL of the transfected cells were collected and stained with anti-itga4 (Clone: 9F10, PE, BD Pharmingen™), anti-itgb 1 (Clone: (TS2/16), Super Bright 436, eBioscience), anti-itgb7 (Clone: FIB504, Brilliant Violet 650, BD Pharmingen™) and viability dye (LIVE/DEAD™ Fixable Green Dead Cell Stain, Invitrogen™). An Attune NxT Flow Cytometer was used to analyze the CRISPR-transfected cells. The flow cytometry results were analyzed using FlowJo™ v10.8.1 Software (BD Life Sciences). Fluorescence minus one (FMO) controls were used to select appropriate gates for data analysis.
# (§6) To generate an individual clones of cells deficient in either ITGB7 or ITGB1 by limiting dilution assay, the transfected cells were resuspended at 5 cells/mL and seeded in 384 well plates. Outgrowth of clones was monitored using a microscope, and 24 clones were transferred for expansion. Expression of either integrin was verified by flow cytometry in each of the clones. One clone of each integrin b7 or the integrin b1 knockout was chosen, expanded and aliquots were frozen in vapor phase liquid nitrogen.
# Integrin Adhesion Assay: Protocol 5
# VCAM (R&D Systems, 0.1 ug) was diluted in 50 μL PBS, added to each well of an opaque ELISA plate (Thermo), and incubated overnight at 4° C. Coated plates were washed once with PBS and then blocked with 200 μL of assay buffer (10 mM HEPES, 150 mM NaCl, 1 mM MnCl2, 0.1 mM CaCl2), 1% BSA) for 1 hour at 37° C. and 5% CO2. After incubation, buffer was aspirated from the plates and 50 μL of fresh assay buffer was added. Compounds were added by compounds dispenser (Tecan) and DMSO concentration was normalized to 1% across each plate. 50 μL of RPMI-8866 cells with a stable LOF mutation of the ITGB7 gene (2×10^6 per mL) were added to each well and the plates were incubated for 1 hour at 37° C. and 5% CO2. After incubation, plates were allowed to cool to RT for 10 minutes before being washed four times in assay buffer by an automated plate washer (BioTek). After washing, 100 μL of a 1:1 mixture of assay buffer and CellTiter GLO 2.0 reagent (Promega) were added to each well. Plates were mixed for 2 minutes at 1000 rpm and then allowed to incubate an additional 10 minutes before reading out luminescence on a Tecan Spark plate reader. […]
# [2] = target: α4β7 integrin (Homo sapiens (Human), UniProt P13612+P26010); test: Integrin Adhesion Assay: Protocol 4 (MAdCAM-coated plate, RPMI-8866 cells with stable LOF mutation of the ITGB1 gene); format: cell-based
# Experimental: as §1, §2, §3, §4, §5, §6
# Integrin Adhesion Assay: Protocol 4
# MAdCAM (R&D Systems, 0.1 ug) was diluted in 50 μL PBS, added to each well of an opaque ELISA plate (Thermo), and incubated overnight at 4° C. Coated plates were washed once with PBS and then blocked with 200 μL of assay buffer (10 mM HEPES, 150 mM NaCl, 1 mM MnCl2, 0.1 mM CaCl2), 1% BSA) for 1 hour at 37° C. and 5% CO2. After incubation, buffer was aspirated from the plates and 50 μL of fresh assay buffer was added. Compounds were added using a compounds dispenser (Tecan), and DMSO concentration was normalized to 1% across each plate. 50 μL of RPMI-8866 cells with a stable loss of function (LOF) mutation of the ITGB1 gene (2×10^6 per mL) were added to each well and the plates were incubated for 1 hour at 37° C. at a CO2 concentration of 5%. After incubation, plates were allowed to cool to RT for 10 minutes before being washed four times in assay buffer by an automated plate washer (BioTek). After washing, 100 μL of a 1:1 mixture of assay buffer and CellTiter GLO 2.0 reagent (Promega) were added to each well. Plates were mixed for 2 minutes at 1000 rpm and then allowed to incubate an additional 10 minutes before reading out luminescence on a Tecan Spark plate reader. […]
# [3] = RPMI-8866 cells with stable LOF mutation of the ITGB1 gene, read-out: Mean IC50 α4β7 KO^a
# [4] = Protocol 4, RPMI-8866 cells with LOF mutation of ITGB1, MAdCAM, read-out: Mean IC50 α4β7 KO
# Chain of α4β7 integrin (P13612 34-1032): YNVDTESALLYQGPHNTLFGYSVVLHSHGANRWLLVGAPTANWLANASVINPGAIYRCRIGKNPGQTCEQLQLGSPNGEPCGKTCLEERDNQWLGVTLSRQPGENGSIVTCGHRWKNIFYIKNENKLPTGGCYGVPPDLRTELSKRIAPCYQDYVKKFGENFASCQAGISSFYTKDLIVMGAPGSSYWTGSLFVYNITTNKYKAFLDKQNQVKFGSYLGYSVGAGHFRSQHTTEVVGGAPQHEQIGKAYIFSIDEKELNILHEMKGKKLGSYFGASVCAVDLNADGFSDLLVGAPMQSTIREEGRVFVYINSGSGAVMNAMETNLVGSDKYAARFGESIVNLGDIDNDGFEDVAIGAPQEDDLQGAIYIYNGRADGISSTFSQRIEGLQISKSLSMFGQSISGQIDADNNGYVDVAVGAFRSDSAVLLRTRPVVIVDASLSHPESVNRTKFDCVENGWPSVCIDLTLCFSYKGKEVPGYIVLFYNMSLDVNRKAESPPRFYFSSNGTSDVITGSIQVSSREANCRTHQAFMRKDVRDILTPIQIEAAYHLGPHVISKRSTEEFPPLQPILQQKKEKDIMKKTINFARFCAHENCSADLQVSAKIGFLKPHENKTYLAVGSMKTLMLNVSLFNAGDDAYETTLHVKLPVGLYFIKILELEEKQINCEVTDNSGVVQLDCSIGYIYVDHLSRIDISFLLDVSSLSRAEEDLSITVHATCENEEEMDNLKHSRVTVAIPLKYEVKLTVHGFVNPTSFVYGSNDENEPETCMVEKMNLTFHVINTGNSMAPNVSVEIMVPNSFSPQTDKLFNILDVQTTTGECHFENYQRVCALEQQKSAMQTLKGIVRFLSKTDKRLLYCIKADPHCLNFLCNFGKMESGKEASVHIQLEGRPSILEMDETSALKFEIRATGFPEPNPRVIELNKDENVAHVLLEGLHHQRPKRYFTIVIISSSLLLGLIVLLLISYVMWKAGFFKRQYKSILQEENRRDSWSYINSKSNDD
# Chain of α4β7 integrin (P26010 20-798): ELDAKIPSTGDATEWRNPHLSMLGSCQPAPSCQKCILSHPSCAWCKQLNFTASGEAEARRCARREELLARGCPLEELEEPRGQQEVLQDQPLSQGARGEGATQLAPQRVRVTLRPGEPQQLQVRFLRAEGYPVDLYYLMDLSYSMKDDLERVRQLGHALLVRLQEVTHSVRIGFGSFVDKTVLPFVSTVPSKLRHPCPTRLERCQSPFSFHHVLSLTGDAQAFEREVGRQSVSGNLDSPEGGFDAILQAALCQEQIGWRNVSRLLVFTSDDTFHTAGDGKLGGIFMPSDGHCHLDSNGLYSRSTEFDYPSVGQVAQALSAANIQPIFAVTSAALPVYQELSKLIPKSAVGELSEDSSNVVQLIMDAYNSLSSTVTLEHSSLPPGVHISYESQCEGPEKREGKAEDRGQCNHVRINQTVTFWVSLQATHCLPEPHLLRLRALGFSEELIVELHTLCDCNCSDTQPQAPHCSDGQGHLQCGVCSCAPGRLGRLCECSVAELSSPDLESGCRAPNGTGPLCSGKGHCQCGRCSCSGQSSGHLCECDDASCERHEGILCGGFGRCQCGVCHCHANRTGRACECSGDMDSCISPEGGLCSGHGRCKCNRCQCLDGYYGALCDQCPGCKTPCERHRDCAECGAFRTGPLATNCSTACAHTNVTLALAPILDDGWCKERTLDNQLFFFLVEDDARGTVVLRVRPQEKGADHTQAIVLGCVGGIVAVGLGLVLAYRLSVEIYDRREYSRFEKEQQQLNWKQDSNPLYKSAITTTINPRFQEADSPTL
# Chain of α4β1 integrin (P13612 34-1032): as the sequence (P13612 34-1032) above
# Chain of α4β1 integrin (P05556 21-798): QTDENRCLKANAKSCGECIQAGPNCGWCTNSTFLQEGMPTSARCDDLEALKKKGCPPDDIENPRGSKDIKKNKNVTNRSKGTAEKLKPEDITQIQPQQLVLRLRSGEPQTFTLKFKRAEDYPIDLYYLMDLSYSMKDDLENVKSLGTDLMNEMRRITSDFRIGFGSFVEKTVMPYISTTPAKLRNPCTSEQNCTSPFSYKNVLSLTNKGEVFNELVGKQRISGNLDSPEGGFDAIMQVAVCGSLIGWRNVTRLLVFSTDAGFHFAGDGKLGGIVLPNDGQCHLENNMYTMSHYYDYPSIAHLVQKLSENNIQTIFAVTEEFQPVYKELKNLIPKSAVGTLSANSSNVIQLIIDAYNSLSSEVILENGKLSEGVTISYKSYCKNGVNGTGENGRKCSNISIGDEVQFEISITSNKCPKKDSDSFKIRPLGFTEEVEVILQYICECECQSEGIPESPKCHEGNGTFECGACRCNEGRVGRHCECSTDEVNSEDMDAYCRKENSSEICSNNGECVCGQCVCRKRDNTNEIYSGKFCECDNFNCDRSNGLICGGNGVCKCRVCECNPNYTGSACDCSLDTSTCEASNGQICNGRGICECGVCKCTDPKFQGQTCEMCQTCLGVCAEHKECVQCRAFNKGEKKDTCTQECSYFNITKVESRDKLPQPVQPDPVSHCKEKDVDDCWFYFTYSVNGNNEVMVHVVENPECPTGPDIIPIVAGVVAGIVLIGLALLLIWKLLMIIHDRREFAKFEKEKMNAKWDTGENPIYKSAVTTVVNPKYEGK
Compound,pIC50 [1],"pIC50 [2, 3]","pIC50 [2, 4]"
Cn1c(=O)c(-c2cccc3c(C[C@H](NC(=O)C4(C(F)(F)F)CCN(CC(F)F)CC4)C(=O)O)cccc23)c(C(F)(F)F)c2ccccc21 (racemic) [Compound 480],6.00 to 7.00,> 8.00,
"Cn1c(=O)c(-c2cccc3c(C[C@H](NC(=O)C4(C(F)(F)F)CCN([C@H]5CCC(F)(F)C5)CC4)C(=O)O)cccc23)c(C(F)(F)F)c2ccccc21 (single isomer, unassigned) [Compound 495]",< 6.00,7.00 to 8.00,
"COc1ccc(CN2CCC(F)(F)CC2)c(OC)c1-c1cccc2c(C[C@H](NC(=O)C3(C(F)(F)F)CCN(C4COCC4(F)F)CC3)C(=O)O)cccc12 (single isomer, unassigned) [Compound 639]",6.00 to 7.00,> 8.00,
"COc1ccc(CN2CCC(F)(F)CC2)c(OC)c1-c1cccc2c(C[C@H](NC(=O)C3(C(F)(F)F)CCN(C4COCC4(F)F)CC3)C(=O)O)cccc12 (single isomer, unassigned) [Compound 640]",< 6.00,7.00 to 8.00,
CN(C)Cc1cccc2c(-c3cccc4c(C[C@H](NC(=O)C5(C(F)(F)F)CCN(CC(F)(F)F)CC5)C(=O)O)cccc34)nccc12 [Compound 421],< 6.00,> 8.00,
CCOCc1cc(OC)c(-c2cccc3c(C[C@H](NC(=O)C4(C(F)(F)F)CCN(CC(F)(F)F)CC4)C(=O)O)cccc23)c(OC)c1 [Compound 430],6.00 to 7.00,> 8.00,
Cn1c(=O)c(-c2cccc3c(C[C@H](NC(=O)C4(C(F)(F)F)CCN(C5COC5)CC4)C(=O)O)cccc23)c(C(F)(F)F)c2ccccc21 [Compound 432],7.00 to 8.00,> 8.00,
Cc1cccc(F)c1C(=O)N[C@@H](Cc1cccc2c(-c3c(C(F)(F)F)c4cc(CN(C)C)ccc4n(C)c3=O)cccc12)C(=O)O [Compound 451],6.00 to 7.00,> 8.00,
Cc1cc(C(F)(F)F)c(-c2cccc3c(C[C@H](NC(=O)C4(C(F)(F)F)CCN(CC(F)(F)F)CC4)C(=O)O)cccc23)c(=O)n1C [Compound 453],6.00 to 7.00,> 8.00,
COc1ccc(CN(C)C)c(OC)c1-c1cccc2c(C[C@H](NC(=O)C3(C(F)(F)F)CCN(CC(F)(F)F)CC3)C(=O)O)cccc12 [Compound 455],6.00 to 7.00,> 8.00,
O=C(O)[C@H](Cc1cccc2c(-c3nccc4ccc(CCCN5CCC6(CC5)CC6)cc34)cccc12)NC(=O)C1(C(F)(F)F)CCN(CC(F)(F)F)CC1 [Compound 743],,,> 8.00
O=C(O)[C@H](Cc1cccc2c(-c3nccc4ccc(CCCN5CC6(CCC6)C5)cc34)cccc12)NC(=O)C1(C(F)(F)F)CCN(CC(F)(F)F)CC1 [Compound 745],,,> 8.00
Cc1c(CN2CCCCC2)ccnc1-c1cccc2c(C[C@H](NC(=O)C3(C(F)(F)F)CCN(CC(F)(F)F)CC3)C(=O)O)cccc12 [Compound 747],,,7.00 to 8.00
CN1CCc2nc(-c3cccc4c(C[C@H](NC(=O)C5(C(F)(F)F)CCN(CC(F)(F)F)CC5)C(=O)O)cccc34)ccc2C1 [Compound 755],,,> 8.00
Cc1cc(C2CCCN(C)C2)cnc1-c1cccc2c(C[C@H](NC(=O)C3(C(F)(F)F)CCN(CC(F)(F)F)CC3)C(=O)O)cccc12 (some centres unmarked) [Compound 760],,,> 8.00
O=C(O)[C@H](Cc1cccc2c(-c3nccc4ccc(CCCN5CCC6(CC5)CC6)cc34)cccc12)NC(=O)C1(C(F)(F)F)CCN(CC(F)F)CC1 [Compound 774],,,> 8.00
O=C(O)[C@H](Cc1cccc2c(-c3ncc(CN4CC(F)C4)c4ccccc34)cccc12)NC(=O)C1(C(F)(F)F)CCN(CC(F)F)CC1 [Compound 877],,,> 8.00

# Results, then the compound that gave them:
pIC50 [1],"pIC50 [2, 3]","pIC50 [2, 4]",Compound
,,> 8.00,COc1cc(CN2CCC(C(F)(F)F)CC2)cnc1-c1cccc2c(C[C@H](NC(=O)C3(C(F)(F)F)CCN(CC(F)(F)F)CC3)C(=O)O)cccc12 [Compound 889]
,,> 8.00,O=C(O)[C@H](Cc1cccc2c(-c3ncc(CN4CCCCC4)cc3C(F)(F)F)cccc12)NC(=O)C1(C(F)(F)F)CCN(CC(F)F)CC1 [Compound 897]
,,> 8.00,Cc1cc(CN2CCN(C3CC3)CC2)cnc1-c1cccc2c(C[C@H](NC(=O)C3(C(F)(F)F)CCN(CC(F)F)CC3)C(=O)O)cccc12 [Compound 899]
,,> 8.00,O=C(O)[C@H](Cc1cccc2c(-c3ncc(CN4CCC(F)(F)CC4)c4ccccc34)cccc12)NC(=O)C1(C(F)(F)F)CCN(CC(F)F)CC1 [Compound 906]
,,> 8.00,COC1CN(Cc2cnc(-c3cccc4c(C[C@H](NC(=O)C5(C(F)(F)F)CCN(CC(F)F)CC5)C(=O)O)cccc34)c3ccccc23)C1 [Compound 913]
,,> 8.00,COc1ccc(CN2CCCCC2)cc1-c1cccc2c(C[C@H](NC(=O)C3(C(F)(F)F)CCN(CC(F)F)CC3)C(=O)O)cccc12 [Compound 937]
,,> 8.00,COc1ccc(CN2CCC(C(F)(F)F)CC2)cc1-c1cccc2c(C[C@H](NC(=O)C3(C(F)(F)F)CCN(CC(F)F)CC3)C(=O)O)cccc12 [Compound 938]
,,> 8.00,COc1ccc(CN2CCC(C)(C)CC2)cc1-c1cccc2c(C[C@H](NC(=O)C3(C(F)(F)F)CCN(CC(F)(F)F)CC3)C(=O)O)cccc12 [Compound 941]
,,> 8.00,C[C@@H]1CN(CCc2cnc(-c3cccc4c(C[C@H](NC(=O)C5(C(F)(F)F)CCN(CC(F)(F)F)CC5)C(=O)O)cccc34)c3ccccc23)C[C@H](C)O1 [Compound 979]
,,> 8.00,COc1c(CN(C)C)ccc(C)c1-c1cccc2c(C[C@H](NC(=O)c3c(C)cccc3F)C(=O)O)cccc12 [Compound 1010]
,,7.00 to 8.00,COc1c(CN2CCCCC2)ccc(C(F)(F)F)c1-c1cccc2c(C[C@H](NC(=O)c3c(C)cccc3F)C(=O)O)cccc12 [Compound 1022]
,,6.00 to 7.00,Cn1c(=O)c(-c2cccc3c(C[C@H](NC(=O)C4(C)C[C@H]5CN(CC(F)(F)F)C[C@H]5C4)C(=O)O)cccc23)c(C(F)(F)F)c2ccccc21 (some centres unmarked) [Compound 1047]
,,6.00 to 7.00,Cn1c(=O)c(-c2cccc3c(C[C@H](NC(=O)C4(C)C5CC4CN(CC(F)(F)F)C5)C(=O)O)cccc23)c(C(F)(F)F)c2ccccc21 (some centres unmarked) [Compound 1048]
,,6.00 to 7.00,O=C(O)[C@H](Cc1cccc2c(-n3cccc(C(F)(F)F)c3=O)cccc12)NC(=O)C1(C(F)(F)F)CCN(CC(F)(F)F)CC1 [Compound 1055]
